Patent US11548900B2, “Oxazino-quinazoline and oxazino-quinoline type compound, preparation method and uses thereof” (BEIJING SCITECH-MQ PHARMACEUTICALS LIMITED, priority 2018, dated 2023)

How the values were obtained:
EGFR kinase = EGFR kinase (Homo sapiens (Human), UniProt P00533); test: Inhibition of EGFR kinase activity (ULight-labeled JAK-1 (Tyr1023) peptide substrate); type: biochemical; conditions: EGFR kinase 0.35 nM, ATP 150 μM, 2 hours
Summary of the method: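 TR-FRET kinase assay: 0.35 nM EGFR, 150 μM ATP, 100 nM substrate, 2 h at room temperature in the dark after 5 min enzyme-compound preincubation, 1% DMSO. Compounds tested as 11-point 3-fold series, 2.5 μM to 0.042 nM final, duplicate; IC50 from 665/615 nm ratio-based inhibition.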

HCC827 cells = test: Inhibition of cell proliferation, HCC827 (CCK-8, 72 h); type: cell-based; conditions: Homo sapiens, 72 h incubation
Experimental: The assay for the inhibition of cell proliferation by small molecular compounds was carried out using the method as follows:
1. 600 μL pancreatin was added to a T75 cell culture flask, which was digested in a 37° C. incubator for about 1 min before 5 mL of DMEM complete culture solution was added, blew evenly, transferred to a 15 mL centrifuge tube, and centrifuged at 1000 rpm for 4 min;
2. The supernatant was removed and 5 mL DMEM complete culture solution was added, blew evenly, and 10 μL cell suspension was taken and mixed with 10 μL 0.4% Trypan Blue, and counted using a cell counter;
3. BT474 and HCC827 cell lines were seeded in 96-well plates at a cell density of 10,000 and 3000 cells/well/80 μL, respectively, and cultured overnight. Only sterile water was added to the 36 wells on the periphery of the 96-well plate without adding cells, and only the 60 wells in the center of the 96-well plate were used for cell assays and controls;
4. Dilution of compounds: the compounds were diluted with a 3-fold dilution to make 10 concentrations in total with an initial concentration of 10 mM;
5. 20 μL of different compounds with different concentrations were added to each well, and 20 μL of complete culture solution was added to the remaining wells. The final concentration of DMSO in each well is 0.25%;
6. After 72 h of incubation, 10 μL CCK-8 reagent was added to each well, and incubated at 37° C. for 1-2 h; and the OD value was read at 450 nm;
7. Cell survival rate (%)=[(As−Ab)/(Ac−Ab)]*100%
As: Assay well (medium containing cell, CCK-8, compound)
Ac: Control well (medium containing cell, CCK-8)
Ab: Blank well (CCK-8, medium without cell and compound)
8. The value was imported into Graphpad Prism5 software for the calculation of IC50s (compound concentration at which 50% maximum survival rate is observed).

BT474 cells = test: Inhibition of cell proliferation, BT474 (CCK-8, 72 h); type: cell-based; conditions: Homo sapiens, BT-474, 72 h incubation
Summary of the method: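 BT474 and HCC827 seeded at 10,000 and 3000 cells/well respectively, cultured overnight, then exposed to 10-point 3-fold compound dilutions (top stock 10 mM; 0.25% DMSO final) for 72 h. Viability by CCK-8, OD450; survival normalised to untreated and cell-free blanks, IC50 from curve fit.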

HER2 kinase = HER2 kinase (Homo sapiens (Human), UniProt P04626); test: Inhibition of HER2 kinase activity (ULight-labeled PolyGT substrate); type: biochemical; conditions: HER2 kinase 10 nM, ATP 10 μM, 2 hours
Summary of the method: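 Eleven-point 3-fold dilutions (0.042 nM–2.5 μM final, 1% DMSO) tested in duplicate against 10 nM HER2 with 100 nM ULight-labelled PolyGT and 10 μM ATP. Reaction ran 2 h at RT after 5 min pre-incubation; 665/615 nm TR-FRET ratio used to derive inhibition and IC50.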

Sequence of HER2 kinase (P04626 23-1255): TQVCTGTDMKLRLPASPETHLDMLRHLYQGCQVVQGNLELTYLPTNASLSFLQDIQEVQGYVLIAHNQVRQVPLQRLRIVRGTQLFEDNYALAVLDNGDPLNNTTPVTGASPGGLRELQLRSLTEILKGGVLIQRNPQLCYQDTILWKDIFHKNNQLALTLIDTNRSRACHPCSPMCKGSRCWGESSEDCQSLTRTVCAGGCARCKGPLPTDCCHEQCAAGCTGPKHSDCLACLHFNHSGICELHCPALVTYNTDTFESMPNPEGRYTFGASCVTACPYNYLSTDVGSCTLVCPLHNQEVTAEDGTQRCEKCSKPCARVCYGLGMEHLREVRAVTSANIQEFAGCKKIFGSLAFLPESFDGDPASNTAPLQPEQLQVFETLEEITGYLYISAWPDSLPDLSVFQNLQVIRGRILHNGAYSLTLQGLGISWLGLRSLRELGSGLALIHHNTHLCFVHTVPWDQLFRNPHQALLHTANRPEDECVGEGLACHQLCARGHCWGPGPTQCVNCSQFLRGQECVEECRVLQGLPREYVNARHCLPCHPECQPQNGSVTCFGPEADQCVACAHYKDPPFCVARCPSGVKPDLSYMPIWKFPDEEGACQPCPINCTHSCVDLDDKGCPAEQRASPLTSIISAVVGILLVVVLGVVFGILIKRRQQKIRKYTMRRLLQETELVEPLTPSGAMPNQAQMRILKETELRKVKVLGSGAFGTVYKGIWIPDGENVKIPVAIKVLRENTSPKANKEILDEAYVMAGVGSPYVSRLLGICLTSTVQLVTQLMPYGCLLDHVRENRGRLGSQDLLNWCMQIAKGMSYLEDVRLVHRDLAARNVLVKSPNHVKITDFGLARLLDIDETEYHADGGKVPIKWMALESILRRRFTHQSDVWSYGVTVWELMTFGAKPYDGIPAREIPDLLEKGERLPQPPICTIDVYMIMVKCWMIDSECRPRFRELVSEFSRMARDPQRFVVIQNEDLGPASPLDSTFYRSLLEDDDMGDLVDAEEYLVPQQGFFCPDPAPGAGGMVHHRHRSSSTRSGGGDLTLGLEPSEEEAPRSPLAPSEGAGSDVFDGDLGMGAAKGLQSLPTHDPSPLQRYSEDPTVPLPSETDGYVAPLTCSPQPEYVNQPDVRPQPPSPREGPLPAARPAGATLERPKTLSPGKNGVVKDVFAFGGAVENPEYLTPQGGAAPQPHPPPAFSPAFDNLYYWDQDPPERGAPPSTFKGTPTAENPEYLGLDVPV
Sequence of EGFR kinase (P00533 25-1210): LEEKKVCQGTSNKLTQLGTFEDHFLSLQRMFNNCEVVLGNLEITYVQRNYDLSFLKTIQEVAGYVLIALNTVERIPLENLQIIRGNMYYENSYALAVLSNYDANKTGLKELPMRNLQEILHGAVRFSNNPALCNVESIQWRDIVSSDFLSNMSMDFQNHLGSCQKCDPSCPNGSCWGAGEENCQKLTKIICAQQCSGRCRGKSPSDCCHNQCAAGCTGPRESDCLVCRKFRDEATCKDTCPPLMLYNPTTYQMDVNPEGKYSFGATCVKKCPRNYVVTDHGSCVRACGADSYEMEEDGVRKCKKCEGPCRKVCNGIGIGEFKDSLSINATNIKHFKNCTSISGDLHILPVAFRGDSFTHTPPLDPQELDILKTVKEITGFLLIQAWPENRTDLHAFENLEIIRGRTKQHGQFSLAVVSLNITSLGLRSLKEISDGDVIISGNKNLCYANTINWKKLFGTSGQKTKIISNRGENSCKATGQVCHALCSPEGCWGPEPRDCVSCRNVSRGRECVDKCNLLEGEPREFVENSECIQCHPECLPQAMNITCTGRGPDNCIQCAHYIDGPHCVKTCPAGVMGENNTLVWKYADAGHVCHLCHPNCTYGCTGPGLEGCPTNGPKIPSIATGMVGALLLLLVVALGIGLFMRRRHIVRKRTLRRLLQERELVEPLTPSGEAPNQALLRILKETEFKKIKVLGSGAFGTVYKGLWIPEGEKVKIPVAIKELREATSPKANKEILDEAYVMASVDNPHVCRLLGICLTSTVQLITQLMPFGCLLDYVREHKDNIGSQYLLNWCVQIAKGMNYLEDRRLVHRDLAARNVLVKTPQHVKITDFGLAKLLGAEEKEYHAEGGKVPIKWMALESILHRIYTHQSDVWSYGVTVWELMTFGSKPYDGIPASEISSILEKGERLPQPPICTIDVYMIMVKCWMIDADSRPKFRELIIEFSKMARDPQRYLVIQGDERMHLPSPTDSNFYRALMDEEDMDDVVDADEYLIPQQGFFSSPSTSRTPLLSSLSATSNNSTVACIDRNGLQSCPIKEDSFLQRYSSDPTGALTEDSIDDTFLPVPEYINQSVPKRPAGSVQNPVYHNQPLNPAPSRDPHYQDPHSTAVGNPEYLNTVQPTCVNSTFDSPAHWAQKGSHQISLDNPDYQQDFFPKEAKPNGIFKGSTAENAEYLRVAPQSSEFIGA

| Structure (SMILES) | IC50 (EGFR kinase) [nM] | IC50 (HCC827 cells) [nM] | IC50 (BT474 cells) [nM] | IC50 (HER2 kinase) [nM] |
| --- | --- | --- | --- | --- |
| CN(C)C/C=C/C(=O)N1CCOc2c1ccc1ncnc(Nc3ccc(OCc4cccs4)cc3)c21 [Example 64, (E)-4-(dimethylamino)-1-(10-((4-(thiophen-2-ylmethoxy)phenyl)amino)-2,3-dihydro-4H-[1,4]oxazino[2,3-f]quinazolin-4-yl)but-2-en-1-one] | 50 to 500 | 50 to 500 | ≤ 50 | ≤ 50 |
| CN1CCN(C/C=C/C(=O)N2CCOc3c2ccc2ncnc(Nc4ccc(OCc5ccccn5)c(Cl)c4)c32)CC1 [Example 104, (E)-1-(10-((3-chloro-4-(pyridin-2-ylmethoxy)phenyl)amino)-2,3-dihydro-4H-[1,4]oxazino[2,3-f]quinazolin-4-yl)-4-(4-methylpiperazin-1-yl)but-2-en-1-one] | ≤ 50 | 50 to 500 | ≤ 50 | ≤ 50 |
| CN(C)C/C=C/C(=O)N1CCOc2c1ccc1ncnc(Nc3ccc(OCc4ccccn4)cc3)c21 [Example 63, (E)-4-(dimethylamino)-1-(10-((4-(pyridin-2-ylmethoxy)phenyl)amino)-2,3-dihydro-4H-[1,4]oxazino[2,3-f]quinazolin-4-yl)but-2-en-1-one] | 50 to 500 | 500 to 5000 | ≤ 50 | ≤ 50 |
| CC(=O)N1CCN(C/C=C/C(=O)N2CCOc3c2ccc2ncnc(Nc4ccc(OCc5ccccn5)c(Cl)c4)c32)CC1 [Example 108, (E)-4-(4-acetylpiperazin-1-yl)-1-(10-((3-chloro-4-(pyridin-2-ylmethoxy)phenyl)amino)-2,3-dihydro-4H-[1,4]oxazino[2,3-f]quinazolin-4-yl)but-2-en-1-one] | ≤ 50 | 50 to 500 | ≤ 50 | ≤ 50 |
| COc1cc(Nc2ncnc3ccc4c(c23)OCCN4C(=O)/C=C/CN(C)C)ccc1OCc1cccc(F)c1 [Example 68, (E)-4-(dimethylamino)-1-(10-((4-((3-fluorobenzyl)oxy)-3-methoxyphenyl)amino)-2,3-dihydro-4H-[1,4]oxazino[2,3-f]quinazolin-4-yl)but-2-en-1-one] | ≤ 50 | 500 to 5000 | ≤ 50 | ≤ 50 |
| CN(C)C/C=C/C(=O)N1CCOc2c1ccc1ncnc(Nc3ccc(Oc4nccs4)cc3)c21 [Example 57, (E)-4-(dimethylamino)-1-(10-((4-(thiazol-2-yloxy)phenyl)amino)-2,3-dihydro-4H-[1,4]oxazino[2,3-f]quinazolin-4-yl)but-2-en-1-one] | 50 to 500 | 500 to 5000 | ≤ 50 | ≤ 50 |
| CCN(CC)C/C=C/C(=O)N1CCOc2c1ccc1ncnc(Nc3ccc(Oc4ccccc4)cc3)c21 [Example 92, (E)-4-(diethylamino)-1-(10-((4-phenoxyphenyl)amino)-2,3-dihydro-4H-[1,4]oxazino[2,3-f]quinazolin-4-yl)but-2-en-1-one] | ≤ 50 | 500 to 5000 | ≤ 50 | ≤ 50 |
| CN1CCN(C/C=C/C(=O)N2CCOc3c2ccc2ncnc(Nc4ccc(Oc5ccccc5)cc4)c32)CC1 [Example 95, (E)-4-(4-methylpiperazin-1-yl)-1-(10-((4-phenoxyphenyl)amino)-2,3-dihydro-4H-[1,4]oxazino[2,3-f]quinazolin-4-yl)but-2-en-1-one] | ≤ 50 | 50 to 500 | ≤ 50 | ≤ 50 |
| CN(C/C=C/C(=O)N1CCOc2c1ccc1ncnc(Nc3ccc(OCc4ccccn4)c(Cl)c3)c21)C1CCC1 [Example 110, (E)-1-(10-((3-chloro-4-(pyridin-2-ylmethoxy)phenyl)amino)-2,3-dihydro-4H-[1,4]oxazino[2,3-f]quinazolin-4-yl)-4-(cyclobutyl(methyl)amino)but-2-en-1-one] | ≤ 50 | 50 to 500 | ≤ 50 | ≤ 50 |
| CN(C)C/C=C/C(=O)N1CCOc2c1ccc1ncnc(Nc3ccc(SCc4ccccc4)cc3)c21 [Example 66, (E)-4-(dimethylamino)-1-(10-((4-(benzylthio)phenyl)amino)-2,3-dihydro-4H-[1,4]oxazino[2,3-f]quinazolin-4-yl)but-2-en-1-one] | ≤ 50 | 500 to 5000 | ≤ 50 | ≤ 50 |
| CN(C)C/C=C/C(=O)N1CCOc2c1ccc1ncnc(Nc3ccc(OCc4ccccn4)c(Cl)c3)c21 [Example 46, (E)-1-(10-((3-chloro-4-(pyridin-2-ylmethoxy)phenyl)amino)-2,3-dihydro-4H-[1,4]oxazino[2,3-f]quinazolin-4-yl)-4-(dimethylamino)but-2-en-1-one] | ≤ 50 | 50 to 500 | ≤ 50 | ≤ 50 |
| O=C(/C=C/CN1CCCC1)N1CCOc2c1ccc1ncnc(Nc3ccc(Oc4ccccc4)cc3)c21 [Example 91, (E)-1-(10-((4-phenoxyphenyl)amino)-2,3-dihydro-4H-[1,4]oxazino[2,3-f]quinazolin-4-yl)-4-(pyrrolidin-1-yl)but-2-en-1-one] | ≤ 50 | 500 to 5000 | ≤ 50 | ≤ 50 |
| CN(C)C/C=C/C(=O)N1CCOc2c1ccc1ncnc(Nc3ccc(Oc4cccc(F)c4)cc3)c21 [Example 49, (E)-4-(dimethylamino)-1-(10-((4-(3-fluorophenoxy)phenyl)amino)-2,3-dihydro-4H-[1,4]oxazino[2,3-f]quinazolin-4-yl)but-2-en-1-one] | ≤ 50 | 50 to 500 | ≤ 50 | ≤ 50 |
| CCN(CC)C/C=C/C(=O)N1CCOc2c1ccc1ncnc(Nc3ccc(OCc4ccccn4)c(Cl)c3)c21 [Example 105, (E)-1-(10-((3-chloro-4-(pyridin-2-ylmethoxy)phenyl)amino)-2,3-dihydro-4H-[1,4]oxazino[2,3-f]quinazolin-4-yl)-4-(diethylamino)but-2-en-1-one] | ≤ 50 | 50 to 500 | ≤ 50 | ≤ 50 |
| CN(C)C/C=C/C(=O)N1CCOc2c1ccc1ncnc(Nc3ccc(Oc4ccccc4)c(Cl)c3)c21 [Example 59, (E)-4-(dimethylamino)-1-(10-((3-chloro-4-phenoxyphenyl)amino)-2,3-dihydro-4H-[1,4]oxazino[2,3-f]quinazolin-4-yl)but-2-en-1-one] | ≤ 50 | 500 to 5000 | ≤ 50 | ≤ 50 |
| CN(C)C/C=C/C(=O)N1CCOc2c1ccc1ncnc(Nc3ccc(Oc4cc(F)ccc4F)cc3)c21 [Example 73, (E)-4-(dimethylamino)-1-(10-((4-(2,5-difluorophenoxy)phenyl)amino)-2,3-dihydro-4H-[1,4]oxazino[2,3-f]quinazolin-4-yl)but-2-en-1-one] | 50 to 500 | 500 to 5000 | ≤ 50 | ≤ 50 |
| O=C(/C=C/CN1CCOCC1)N1CCOc2c1ccc1ncnc(Nc3ccc(OCc4cccc(F)c4)c(Cl)c3)c21 [Example 96, (E)-1-(10-((3-chloro-4-((3-fluorobenzyl)oxy)phenyl)amino)-2,3-dihydro-4H-[1,4]oxazino[2,3-f]quinazolin-4-yl)-4-morpholinobut-2-en-1-one] | ≤ 50 | 50 to 500 | ≤ 50 | ≤ 50 |
| CN(C)C/C=C/C(=O)N1CCOc2c1ccc1ncnc(Nc3ccc(Oc4ccccc4)cc3)c21 [Example 44, (E)-4-(dimethylamino)-1-(10-((4-phenoxyphenyl)amino)-2,3-dihydro-4H-[1,4]oxazino[2,3-f]quinazolin-4-yl)but-2-en-1-one] | ≤ 50 | 500 to 5000 | ≤ 50 | ≤ 50 |
| O=C(/C=C/CN1CCCCC1)N1CCOc2c1ccc1ncnc(Nc3ccc(OCc4ccccn4)c(Cl)c3)c21 [Example 107, (E)-1-(10-((3-chloro-4-(pyridin-2-ylmethoxy)phenyl)amino)-2,3-dihydro-4H-[1,4]oxazino[2,3-f]quinazolin-4-yl)-4-(piperidin-1-yl)but-2-en-1-one] | ≤ 50 | 500 to 5000 | ≤ 50 | ≤ 50 |
